Laboratory results from US9655875B2, “Method of treating or preventing tumors using 1-(alkylsulfinyl)-2-isothiocyanatoalkyl-1-alkene” (BEIJING UNIVERSITY OF CHEMICAL TECHNOLOGY, priority 2013, dated 2017).
Where two headings read alike, the source gives them in different places.

Assays:
[1] = tested on: human breast carcinoma cell line MCF-7; assay: Inhibition rate at 10 μM versus chemotherapeutic drugs, MCF-7 (MTT); assay type: cell-based; details: MCF7, MCF-7, 10 μM of drug
Description: (§1) As a drug for target therapy, the erlotinib is applicable to a third-line treatment of locally advanced or metastatic non-small cell lung cancer when two or more than two chemotherapies are failed. Currently, the gemcitabine is clinically utilized as the drug of the first-line therapy in treating advanced non-small cell lung cancer and the metastatic breast cancer. […] 1. Experimental cell lines and related chemical reagents: sources and cultivation of the human lung adenocarcinoma cells A549, the human lung squamous carcinoma cell line H460, the human breast carcinoma cell line MCF-7 are described in the above. […] Then the 96-well plates were transferred into the incubator (37° C., 5% CO2) for culture. […] The anti-tumor effects of the above drugs were measured by the MTT assay. The number of viable cells in the negative control groups at 0 hr was taken as a basis to calculate the anti-tumor effects.

[2] = tested on: Human Peripheral Blood Mononuclear Cell (PBMC); assay: Toxicity on peripheral blood mononuclear cells (MTT); assay type: cell-based; details: for Absorbance 490 nm, replicate 1 / Absorbance 490 nm, replicate 2 / Absorbance 490 nm, replicate 3 / Absorbance 490 nm, replicate 4 / Mean value (absorbance) / Cell viability (%): 24 hrs, MTT; for Cell viability (%): relative to negative control
Protocol: General operations: normal peripheral blood cells were isolated by Ficoll to obtain mononuclear cells. The mononuclear cells were rinsed by the PBS for three times, and added with IMDM+10% FBS to prepare suspensions. […] The suspensions were then inoculated into 96-well plates, with each hole containing 25 thousands cells per 100 μL of the culture medium, and cultured overnight at 37° C.
Treatment: because the proliferation of the PBMCs is very limited and the PBMCs quickly enter a decline phase. Thus, the cell viability was measured by the MTT assay after 24 hrs of culture. […] The group where PBMCs were treated by the sterile deionized water was selected as the negative control group.
1. Experimental cells: normal peripheral blood cells were isolated by Ficoll to obtain mononuclear cells. The mononuclear cells were rinsed by the PBS for three times, added with IMDM+10% FBS to prepare suspensions, […].
2. […] Then the 96-well plates were transferred into an incubator at 37° C. for culture. […] After another 24 hrs of cultivation, 20 μL of MTT was added to each hole, and the plates were incubated for 3 hrs in the incubator (37° C., 5% CO2). Solution in each hole was then removed and replaced by 150 μL of DMSO.

rat cardiomyocytes = details: for Relative ratio of ATP/total protein, Mean value (%) / Relative ratio of ATP/total protein, replicate 1 / Relative ratio of ATP/total protein, replicate 2 / Relative ratio of ATP/total protein, replicate 3: both, SD, rat
Protocol: General operations: 1-2 day old neonatal SD rats (female or male) were selected and cardiomyocytes were isolated in sterile condition. […] The cardiotoxicity of the above drugs were represented by a ratio of ATP/total protein. […] The group where […] were treated by the sterile deionized water was selected as the negative control group.
1. Experimental cells: 1-2 day old neonatal SD rats (female or male) were selected and sterilized. Then ventricular muscles were collected and digested by trypsin to prepare cardiomyocyte suspensions. The suspensions were cultured in the incubator (37° C., 5% CO2), and primary cardiomyocytes were cultured by differential adhesion.
2. […] After another 6 hrs of cultivation, the culture solution in each hole was replaced by the normal culture solution not containing any drugs, and incubated for 42 hrs in the incubator (37° C., 5% CO2). Solution in each hole was then removed, and cells therein were rinsed by the PBS for three times, digested by the trypsin, and gathered into two parts. One part of the cells was utilized to measure the ATP level by the reporter gene assay, and the other part of the cells was utilized to measure the cellular protein concentration by BAC assay. The ratio of ATP (ng) to the protein concentration (μg) was calculated, and the ratio of each experimental group is divided by the ratio of the contrast group to obtain the relative ratio of ATP/total protein, experimental results were listed in Table 4.

[3] = tested on: human lung squamous carcinoma cell line H460; assay: Inhibition rate at 10 μM versus chemotherapeutic drugs, H460 (MTT); assay type: cell-based; details: NCI-H460, H460, 10 μM of drug
Description: as §1

[4] = tested on: human lung adenocarcinoma cells A549; assay: Inhibition rate at 10 μM versus chemotherapeutic drugs, A549 (MTT); assay type: cell-based; details: A549, 10 μM of drug
Description: as §1

[5] = tested on: human lung squamous carcinoma cells H460; assay: MTT growth inhibition of H460 cells (IC50); assay type: cell-based; details: NCI-H460, 48 hrs of treatment
Protocol: (§2) 2. […] Solution in each hole was then removed and replaced by 150 μL of DMSO.

[6] = tested on: human lung adenocarcinoma cells A549; assay: MTT growth inhibition of A549 cells (IC50); assay type: cell-based; details: 48 hrs of treatment
Protocol: as §2

[7] = tested on: human cervical cancer cells HeLa; assay: MTT growth inhibition of HeLa cells (IC50); assay type: cell-based; details: 48 hrs of treatment
Protocol: as §2

[8] = tested on: human pancreatic cancer cells PANC-1; assay: cells; assay type: cell-based; details: 48 hrs of treatment, MTT, read-out: IC50 on the growth of the PANC-1 cells
Protocol: as §2

[9] = tested on: human breast cancer cells MCF-7; assay: MTT growth inhibition of MCF-7 cells (IC50); assay type: cell-based; details: MCF7, 48 hrs of treatment
Protocol: as §2

[10] = tested on: human lung squamous carcinoma cells H460 xenograft; assay: H460 xenograft tumor growth in nude mice; assay type: in vivo; details: 75 mg/kg oral, three times each week
Protocol: 1.1 Preparation of experimental animals: 30 nude mice with equal numbers of females and males were fed in normal conditions in the laboratory for between 3 and 5 days.
Preparation of H460 cells: H460 tumor cells were normally cultured, and diluted using the PBS so as to prepare a suspension of tumor cells having a concentration of 7.5×10^6 tumor cells per milliliter.
1.3 Inoculation of tumor cells: the suspension of the tumor cells was fully shaken and 0.2 mL of the suspension was then sucked by a sterile syringe having a capacity of 1 mL. The tumor cells were then inoculated into armpits of the nude mice via subcutaneous injection. The inoculated mice were then fed for between 2 and 3 days in normal conditions. When the tumor tissue grew to a size with a long axis of approximately 3 mm and a short axis of approximately 2 mm, all the nude mice having the tumor tissues were randomly divided into three groups, which were utilized in subsequent administration experiments.
2.1 Control group: five male mice and five female mice having tumor tissues were orally administered with ultrapure water for three times each week (respectively at Monday, Wednesday, and Friday afternoons), and the administered volume was 0.3 mL for each time.
3.2. Acquisition of sizes of tumor tissues in the nude mice: the sizes of the tumor tissues in the nude mice were measured three times per week (respectively at Monday, Wednesday, and Friday afternoons). An electronic vernier caliper was utilized to measure the long axis and the short axis of the tumor tissues, and an accuracy of the data was 0.01 mm.
3.4 Finish time of the experiments: when the tumor tissues in the nude mice of the control group reach an average size of 1000 mm^3 (Volume=long axis×short axis 2×0.5236), the weights and the sizes of the tumor tissues of the nude mice were recorded, and then the experiments were stopped and the nude mice were treated.
3.5 Treatment of nude mice when finishing the experiments: the nude mice were killed, arranged according to different groups, and photographed. Six representative mice were selected from each group and photographed. Then the tumor tissues were respectively isolated, weighed, placed at corresponding positions, and photographed.

[11] = tested on: human liver cancer cells HepG2; assay: MTT growth inhibition of HepG2 cells (IC50); assay type: cell-based; details: 48 hrs of treatment
Protocol: as §2

[12] = contrast chemotherapeutic drugs, 10 μM (other concentrations)

SMILES: O=c1[nH]cc(F)c(=O)[nH]1 [5-FU, 5-fluorouracil]
- inhibition at 10 µM [1]: 15.8%
- Absorbance 490 nm, replicate 1 [2, 12]: 0.493
- Absorbance 490 nm, replicate 2 [2, 12]: 0.484
- Absorbance 490 nm, replicate 3 [2, 12]: 0.525
- Absorbance 490 nm, replicate 4 [2, 12]: 0.461
- Mean value (absorbance) [2, 12]: 0.491
- Cell viability (%) [2, 12]: 61.4%

SMILES: COc1cccc2c1C(=O)c1c(O)c3c(c(O)c1C2=O)C[C@@](O)(C(=O)CO)C[C@@H]3O[C@H]1C[C@H](N)[C@H](O)[C@H](C)O1 [Adriamycin, adriamycin]
- Toxicity on the cardiomyocytes (rat cardiomyocytes): obvious toxicity on the cardiomyocytes
- Relative ratio of ATP/total protein, Mean value (%) (rat cardiomyocytes; 10 μM): 46.97%
- Relative ratio of ATP/total protein, replicate 1 (rat cardiomyocytes; 10 μM): 47.3%
- Relative ratio of ATP/total protein, replicate 2 (rat cardiomyocytes; 10 μM): 43.1%
- Relative ratio of ATP/total protein, replicate 3 (rat cardiomyocytes; 10 μM): 50.5%
- Absorbance 490 nm, replicate 1 [2, 12]: 0.482
- Absorbance 490 nm, replicate 2 [2, 12]: 0.482
- Absorbance 490 nm, replicate 3 [2, 12]: 0.496
- Absorbance 490 nm, replicate 4 [2, 12]: 0.530
- Mean value (absorbance) [2, 12]: 0.498
- Cell viability (%) [2, 12]: 62.3%

SMILES: C#Cc1cccc(Nc2ncnc3cc(OCCOC)c(OCCOC)cc23)c1 [Erlotinib, erlotinib]
- inhibition at 10 µM [3]: 33.1%
- inhibition at 10 µM [4]: 30.3%

SMILES: Nc1ccn([C@@H]2O[C@H](CO)[C@@H](O)C2(F)F)c(=O)n1 [Gemcitabine, gemcitabine]
- inhibition at 10 µM [1]: 40.1%
- inhibition at 10 µM [3]: 4.3%
- inhibition at 10 µM [4]: 6.9%

SMILES: CC(=O)O[C@H]1C(=O)[C@@]2(C)[C@H]([C@H](OC(=O)c3ccccc3)[C@]3(O)C[C@H](OC(=O)[C@H](O)[C@@H](NC(=O)c4ccccc4)c4ccccc4)C(C)=C1C3(C)C)[C@]1(OC(C)=O)CO[C@@H]1C[C@@H]2O [Paclitaxel, paclitaxel]
- inhibition at 10 µM [1]: 89.6%
- Absorbance 490 nm, replicate 1 [2, 12]: 0.712
- Absorbance 490 nm, replicate 2 [2, 12]: 0.743
- Absorbance 490 nm, replicate 3 [2, 12]: 0.683
- Absorbance 490 nm, replicate 4 [2, 12]: 0.650
- Mean value (absorbance) [2, 12]: 0.697
- Cell viability (%) [2, 12]: 87.2%
- inhibition at 10 µM [3]: 17.3%
- inhibition at 10 µM [4]: 28.8%

SMILES: C[S+]([O-])CCCCN=C=S (centres unmarked) [Sulforaphane, 1-isothiocyanato-4-(methysulfinyl)-butane]
- Relative ratio of ATP/total protein, Mean value (%) (rat cardiomyocytes; 10 μM): 89.87%
- Relative ratio of ATP/total protein, replicate 1 (rat cardiomyocytes; 10 μM): 90.0%
- Relative ratio of ATP/total protein, replicate 2 (rat cardiomyocytes; 10 μM): 88.2%
- Relative ratio of ATP/total protein, replicate 3 (rat cardiomyocytes; 10 μM): 91.4%
- Relative ratio of ATP/total protein, Mean value (%) (rat cardiomyocytes; 30 μM): 83.33%
- Relative ratio of ATP/total protein, replicate 1 (rat cardiomyocytes; 30 μM): 85.1%
- Relative ratio of ATP/total protein, replicate 2 (rat cardiomyocytes; 30 μM): 83.3%
- Relative ratio of ATP/total protein, replicate 3 (rat cardiomyocytes; 30 μM): 81.6%
- Relative ratio of ATP/total protein, Mean value (%) (rat cardiomyocytes; 50 μM): 76.03%
- Relative ratio of ATP/total protein, replicate 1 (rat cardiomyocytes; 50 μM): 77.5%
- Relative ratio of ATP/total protein, replicate 2 (rat cardiomyocytes; 50 μM): 76.7%
- Relative ratio of ATP/total protein, replicate 3 (rat cardiomyocytes; 50 μM): 73.9%
- Absorbance 490 nm, replicate 1 ([2]; 10 μM): 0.702
- Absorbance 490 nm, replicate 2 ([2]; 10 μM): 0.633
- Absorbance 490 nm, replicate 3 ([2]; 10 μM): 0.705
- Absorbance 490 nm, replicate 4 ([2]; 10 μM): 0.593
- Mean value (absorbance) ([2]; 10 μM): 0.658
- Cell viability (%) ([2]; 10 μM): 82.4%
- Absorbance 490 nm, replicate 1 ([2]; 30 μM): 0.655
- Absorbance 490 nm, replicate 2 ([2]; 30 μM): 0.616
- Absorbance 490 nm, replicate 3 ([2]; 30 μM): 0.58
- Absorbance 490 nm, replicate 4 ([2]; 30 μM): 0.628
- Mean value (absorbance) ([2]; 30 μM): 0.620
- Cell viability (%) ([2]; 30 μM): 77.6%
- Absorbance 490 nm, replicate 1 ([2]; 50 μM): 0.663
- Absorbance 490 nm, replicate 2 ([2]; 50 μM): 0.621
- Absorbance 490 nm, replicate 3 ([2]; 50 μM): 0.610
- Absorbance 490 nm, replicate 4 ([2]; 50 μM): 0.610
- Mean value (absorbance) ([2]; 50 μM): 0.626
- Cell viability (%) ([2]; 50 μM): 78.4%
- Effect on the proliferation of the PBMCs ([2]; Table 3 summary): certain effect on the proliferation of the cells
- IC50 [5]: 34.6 µM
- IC50 [6]: 14.7 µM
- IC50 [7]: 25.8 µM
- IC50 [8]: 6.73 µM
- IC50 [9]: 19.5 µM
- Tumor volume on 1st day ([10]; day 1): 30.55 mm^3
- Tumor volume on 3rd day ([10]; day 3): 78.81 mm^3
- Tumor volume on 6st day ([10]; day 6): 257.8812 mm^3
- Tumor volume on 8th day ([10]; day 8): 389.6022 mm^3
- Tumor volume on 10th day ([10]; day 10): 552.7308 mm^3
- IC50 [11]: 47.3 µM
